US20230257351A1, “SUBSTITUTED N-[…] HAVING P2X4 RECEPTOR ANTAGONISTIC ACTIVITY” (Bayer Aktiengesellschaft, priority 2020, published 2023)

Experiments:
[1] = target: T1, rat P2X4 (Rattus norvegicus, UniProt P51577); assay: FLIPR Method for Rat P2X4 1321N1 Astrocytoma Cells; assay type: cell-based; conditions: 1321N1 stably expressing rat P2X4; agonist MgATP 5 μM (EC80)
T1 construct: expressed in transfected cells
T1 sequence (P51577 1-388): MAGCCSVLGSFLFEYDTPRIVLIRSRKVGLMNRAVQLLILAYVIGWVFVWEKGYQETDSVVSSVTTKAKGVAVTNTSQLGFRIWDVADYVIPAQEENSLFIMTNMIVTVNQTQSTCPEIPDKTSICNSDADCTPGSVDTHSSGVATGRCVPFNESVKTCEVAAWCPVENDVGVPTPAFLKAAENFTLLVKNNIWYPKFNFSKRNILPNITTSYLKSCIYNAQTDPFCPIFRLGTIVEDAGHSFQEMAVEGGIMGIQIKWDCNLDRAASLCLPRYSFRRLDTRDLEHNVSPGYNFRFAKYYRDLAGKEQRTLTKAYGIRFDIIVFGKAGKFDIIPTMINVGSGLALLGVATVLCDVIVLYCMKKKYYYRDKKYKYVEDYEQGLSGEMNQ
Procedure, shortened: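 1321N1 cells stably expressing rat P2X4, Fluo8-AM loaded; compounds (25 μM to 1 nM final, ten concentrations) preincubated 30 min at room temperature, then MgATP added at 5 μM (EC80). Calcium fluorescence read on FLIPR before and after agonist; triplicate data normalized to agonist control, four-parameter fit gives IC50.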

[2] = system: neuropathic mechanical allodynia induced by CCI surgery; assay: Chronic Constriction Injury (CCI) Neuropathic Pain Model in Rats with Pain Behavior Read Out; assay type: in vivo, male Sprague-Dawley rats; conditions: rat CCI, von Frey, BID p.o. days 0 through 9
Experimental: Aim of the study was to test the efficacy of example 68 at ameliorating neuropathic mechanical allodynia. Male Sprague-Dawley rats were subject to chronic constriction injury of the sciatic nerve to induce neuropathic pain. Of those rats, 10 per group were assigned to treatment conditions involving BID drug administration for 10 days and behavioral assessment of mechanical sensitivity for allodynia with von Frey testing (vF). Behavior was assessed pre- and postdosing on Days 0, 2, 5, and 9. Rats were treated with Vehicle or test article BID on days 0 through 9, and rats in the gabapentin treatment group received gabapentin SID on days 0, 2, 5, and 9 in conjunction with behavioral assessment.
As vehicle Solutol/DMSO/WFI (40/10/50) was employed. Application volume for the per oral administration was 10 ml/kg.
Neuropathy was induced in male Sprague-Dawley rats by tying four loose ligatures of chromic gut around the common sciatic nerve in deeply anesthetized rats like described in Bennett, G. J., and Y. K. Xie. “A Peripheral Mononeuropathy in Rat That Produces Disorders of Pain Sensation like Those Seen in Man.” Pain 33 (1988): 87-107.
Mechanical allodynia was measured using 8 Semmes-Weinstein filaments (Stoelting©; Wood Dale, Ill., USA) with varying stiffness (0.4, 0.6, 1.0, 2.0, 4.0, 6.0, 8.0, and 15 g) according to the up-down method1. Animals were placed in individual acrylic chambers on a metal mesh surface and allowed to acclimate to their surroundings for a minimum of 15 minutes before testing. Each filament was presented perpendicular to the plantar surface with sufficient force to cause slight buckling against the paw and held for approximately 6 seconds or until a positive response is noted (paw sharply withdrawn).
Testing was initiated with the 2.0 g filament. In the absence of a paw withdrawal response, the next stronger stimulus was presented. In the event of paw withdrawal, the next weaker stimulus was used. […]
The 50% response threshold is calculated using the formula: […]

- IC50 [1]: 0.233 µM
- Rat P2X4 1321N1 Astrocytoma Cells (FLIPR Assay) avg Efficacy [1]: 89%
SMILES: CC(=O)N(c1ccc(F)c(F)c1)c1cc(NC(=O)Cc2ccc(F)cc2Cl)ccn1 [Example 68, N-{4-[2-(2-chloro-4-fluorophenyl)acetamido]pyridin-2-yl}-N-(3,4-difluorophenyl)acetamide]
- mechanical allodynia induced by CCI surgery [2]: decreased mechanical allodynia
- 50% paw withdrawal threshold ([2]; 30 and 100 mg/kg (FIG. 1)): increased 50% paw withdrawal threshold significantly
